From patent publication US11365177B2, “Chemical uncouplers of respiration and methods of use thereof” (Dana-Farber Cancer Institute, Inc., priority 2017, dated 2022)

How the values were obtained:
C2C12 cells = assay: Measurement of cellular respiration (Seahorse), uncoupling bioactivity; type: cell-based; settings: Mus musculus, Table 5, cyclic head groups, 50 μM compound, maximal increase versus basal oligomycin-treated respiration, means SEM, n=3-6/group, read-out: % stimulation of respiration (baseline = 100%)
Experimental: Oligomycin was purchased from EMD Millipore, and FCCP and rotenone were purchased from Sigma. C2C12 cells were seeded at 35,000 cells/well in an XF24 cell culture microplate (V7-PS, Seahorse Bioscience) and analyzed the following day. On the day of analysis, the cells were washed once with Seahorse respiration buffer (8.3 g/l DMEM, 1.8 g/l NaCl, 1 mM pyruvate, 20 mM glucose, pen/strep), placed in 0.5 ml Seahorse respiration buffer, and incubated in a CO2-free incubator for 1 h. Port injection solutions were prepared as follows (final concentrations in assay in parentheses): 10 μM oligomycin (1 μM final), 500 μM indicated compound (50 μM final), 2 μM FCCP (0.2 μM final), and 30 μM rotenone (3 μM final). The Seahorse program was run as follows: basal measurement, 3 cycles; inject port A (oligomycin), 3 cycles; inject port B (compounds), 8 cycles; inject port C (FCCP), 3 cycles; inject port D (rotenone), 3 cycles. Each cycle consisted of mix 2 min, wait 0 min, and measure 2 min. For data expressed as a percentage of oligomycin-treated basal, the respiration at cycle 6 was normalized to 100%, and the maximum respiration at any time point between cycles 7 and 15 inclusive was used.
Tables 1-4 show uncoupling bioactivity of compounds of the disclosure with different fatty acid side chains. Respiration in C2C12 cells is shown as maximal increases versus basal oligomycin-treated respiration, which is normalized to 100%. Data are shown as means SEM, n=3-6/group.

mPM20D1 = molecular target: T1, mPM20D1 (Mus musculus, UniProt Q8C165); assay: PM20D1 hydrolysis assay; type: in vitro ADME, murine; settings: 10 nmol compound in 100 μl PBS, mPM20D1, 1 h at 37° C., LC-MS; FIG. 2
T1 construct: host or cells: 293T cells (secreted into serum-free conditioned media)
T1 sequence (Q8C165 25-503): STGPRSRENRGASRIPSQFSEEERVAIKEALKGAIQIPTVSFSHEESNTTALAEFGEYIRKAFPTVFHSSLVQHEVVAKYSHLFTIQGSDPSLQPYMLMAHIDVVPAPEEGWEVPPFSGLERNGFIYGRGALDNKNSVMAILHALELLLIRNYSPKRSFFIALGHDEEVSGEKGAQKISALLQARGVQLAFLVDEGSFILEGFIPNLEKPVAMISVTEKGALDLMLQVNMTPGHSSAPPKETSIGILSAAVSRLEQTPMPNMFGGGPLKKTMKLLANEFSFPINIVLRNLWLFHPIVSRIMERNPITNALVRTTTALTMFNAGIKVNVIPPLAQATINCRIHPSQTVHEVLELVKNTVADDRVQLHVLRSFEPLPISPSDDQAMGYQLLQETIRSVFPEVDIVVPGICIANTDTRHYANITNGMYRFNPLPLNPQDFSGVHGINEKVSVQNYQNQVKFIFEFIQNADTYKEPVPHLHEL
Experimental: Three 10 cm plates of 293T cells were transiently transfected with murine PM20D1-6×His-Flag plasmid (Addgene plasmid #84566) using PolyFect according to the manufacturer's instructions. After 48 h, cells were washed twice in PBS and switched to serum free DMEM with penicillin and streptomycin. Serum free conditioned media was collected 24 h later and concentrated ˜10-fold in 30 kDa MWCO filters (EMD Millipore) according to the manufacturer's instructions. The concentrated media was centrifuged to remove debris (600×g, 10 min, 4° C.) and the supernatant containing PM20D1-flag was decanted into a new tube. PM20D1-flag was immunoaffinity purified overnight at 4° C. from the concentrated media using magnetic Flag-M2 beads (Sigma Aldrich). The beads were collected, washed three times in PBS, eluted with 3× Flag peptide ([…] in PBS, Sigma Aldrich), aliquoted, and stored at −80° C.
10 nmol of the indicated compound was incubated in 100 μl PBS (100 VM initial substrate). Reactions were initiated by the addition of PBS or mPM20D1 (5 μl). After 1 h at 37° C., reactions were quenched with […] of a 2:1 v/v mixture of chloroform and methanol with 10 nmol d31-palmitate as an internal standard. The reactions were vortexed and the organic layer was transferred to a sample vial for analysis by LC-MS. For separation of polar metabolites, normal-phase chromatography was performed with a Luna-[…] NH2 column (50 mm×4.60 mm, Phenomenex). Mobile phases were as follows: Buffer A, acetonitrile; Buffer B, 95:5 water/acetonitrile with 0.1% formic acid or 0.2% ammonium hydroxide with 50 mM ammonium acetate for positive and negative ionization mode, respectively. The flow rate for each run started at 0.2 ml/min for 2 min, followed by a gradient starting at 0% B and increasing linearly to 100% B over the course of 15 min with a flow rate of 0.7 ml/min, followed by an isocratic gradient of 100% B for 10 min at 0.7 ml/min before equilibrating for 5 min at 0% B with a flow rate of 0.7 ml/min. MS analysis was performed with an electrospray ionization (ESI) source on an Agilent 6430 QQQ LC-MS/MS. The capillary voltage was set to 3.5 kV, and the fragmentor voltage was set to 100 V. The drying gas temperature was 325° C., the drying gas flow rate was 10 l/min, and the nebulizer pressure was 45 psi. Monitoring of hydrolysis starting materials and products was performed by scanning a mass range of m/z 50-1200. Peaks corresponding to the liberated fatty acids (products) or the intact starting material was integrated.

[1] = Liver microsome stability assay; type: in vitro ADME; settings: mouse liver microsomes 1 mg/mL, 1 μM compound, NADPH, pH 7.4, 37 C; FIG. 3
Experimental: The compounds were evaluated in a mouse liver microsome assay.
Microsome stability was evaluated by incubating 1 μM test compound with 1 mg/mL hepatic microsomes in 100 mM KPi, pH 7.4 at 37 C with shaking. The reaction was initiated by adding NADPH (1 mM final concentration). Aliquots were removed at 0, 5, 10, 20, 40, and 60 minutes and added to acetonitrile (5× v:v) to stop the reaction and precipitate the protein. NADPH dependence of the reaction was evaluated with -NADPH samples. At the end of the assay, the samples were centrifuged through a Millipore Multiscreen Solvinter 0.45 micron low binding PTFE hydrophilic filter plate and analyzed by LC-MS/MS. Data is log transformed and represented as half-life.

DIO mice = assay: Treatment of DIO mice with compound: body weight and food intake; type: in vivo
Experimental: DIO mice (19 weeks, males, stock #380050) were purchased from The Jackson Laboratory. Mice were maintained on a high fat diet for the duration of the experiment (60% fat, Research Diets). Prior to compound administration, mice were mock injected with vehicle (18:1:1 v/v/v saline:DMSO:Kolliphor EL, intraperitoneal) for 4 days. Compound 33 was prepared in the same vehicle and administered at 5 μl/g body weight at the indicated doses. Administration of vehicle of compound occurred once per day. Data shown in FIG. 4A compared changes in body weights of representative mice at day 7 versus initial weight on day 0. Data shown in FIG. 4B represented average food intake per mouse over the 7 day dosing period for each treatment group.

[2] = Plasma concentration after compound administration in DIO mice; type: in vivo; settings: 10 mg/kg, 1 hour after administration, FIG. 5
Experimental: DIO mice (19 weeks, males, stock #380050) were purchased from The Jackson Laboratory. Prior to compound administration, mice were mock injected with vehicle (18:1:1 v/v/v saline:DMSO:Kolliphor EL) for 4 days. Compounds 33 and 37 were prepared in the same vehicle and administered at 10 mg/kg doses. Plasma concentration was measured 1 hour after compound administration.

Compound	activity at 50 µM (C2C12 cells) [%]	hydrolysis by PM20D1 (mPM20D1)	microsome stability (in vitro half-life) [1]	uncoupling bioactivity in vivo (DIO mice; DIO mice on high fat diet, intraperitoneal, once per day)	average food consumed per mouse per day (DIO mice; DIO mice, different treatment groups, 7 day dosing period, FIG. 4B)	change in body weight from the initial weight (DIO mice; DIO mice, higher doses, once per day, day 7 versus day 0, FIG. 4A)	pharmacokinetic properties in vivo (plasma concentration) [2]
CCCCCCCC/C=C\CCCCCCCC(=O)N1Cc2ccccc2[C@H]1C(=O)O [Compound 33, (S)-2-Oleoylisoindoline-1-carboxylic acid]	240 ± 24	entirely resistant to hydrolysis by PM20D1	long in vitro half-lives	possesses uncoupling bioactivity in vivo	consumed the same amount of food per mouse per day	statistically significant weight loss over time	augmented pharmacokinetic properties in vivo
CCCCCCCC/C=C\CCCCCCCC(=O)N1Cc2ccccc2[C@@H]1C(=O)O [Compound 34, (R)-2-Oleoylisoindoline-1-carboxylic acid]	190 ± 12	entirely resistant to hydrolysis by PM20D1	long in vitro half-lives	–	–	–	–
CCCCC/C=C\C/C=C\CCCCCCCC(=O)N1Cc2ccccc2[C@H]1C(=O)O [Compound 36, (S)-2-((9Z,12Z)-Octadeca-9,12-dienoyl)isoindoline-1-carboxylic acid]	185 ± 18	entirely resistant to hydrolysis by PM20D1	long in vitro half-lives	–	–	–	–
CCCCC/C=C\C/C=C\CCCCCCCC(=O)N1Cc2ccccc2[C@@H]1C(=O)O [Compound 37, (R)-2-((9Z,12Z)-Octadeca-9,12-dienoyl)isoindoline-1-carboxylic acid]	190 ± 12	entirely resistant to hydrolysis by PM20D1	long in vitro half-lives	–	–	–	augmented pharmacokinetic properties in vivo
